Results: PMC11982232, “Factors affecting irreversible inhibition of EGFR and influence of chirality on covalent binding” (Communications Chemistry, 2025)

Legend:
GSH = GSH reactivity (glutathione half-life); assay type: physicochemical; conditions: 4.6 mM glutathione (GSH) in phosphate buffer; 4.6 mM GSH, 50 µM compound, pH 7.4 phosphate buffer, 37 °C; read-out: GSH t1/2 (converted)
Procedure: Compounds were suspended to 10 mM in 100% DMSO and were added to 4.6 mM GSH to achieve the final compound concentration of 50 µM in pH 7.4 phosphate buffer before incubating at 37 °C. Compound reaction with GSH was monitored by LC-MS on a Waters Acquity UPLC system with PDA and ELSD operating in positive and negative ion electrospray mode, employing an Acquity UPLC BEH C18, […], 2.1 × 50 mm column with 0.1% formic acid and water-acetonitrile (5–95%) for gradient elution over 4 minutes.

EGFR WT = biological target: T1, EGFR WT (Homo sapiens, UniProt P00533); test: TR-FRET probe displacement assay, EGFR WT; assay type: binding; conditions: for WT pIC50 / IC50: 30 min incubation, mean of at least 3 replicates; for IC50: read-out: WT pIC50 (converted)
T1 construct: made in house; host or cells: Sf9 insect cells (MultiBac baculovirus)
T1 sequence (P00533 25-1210): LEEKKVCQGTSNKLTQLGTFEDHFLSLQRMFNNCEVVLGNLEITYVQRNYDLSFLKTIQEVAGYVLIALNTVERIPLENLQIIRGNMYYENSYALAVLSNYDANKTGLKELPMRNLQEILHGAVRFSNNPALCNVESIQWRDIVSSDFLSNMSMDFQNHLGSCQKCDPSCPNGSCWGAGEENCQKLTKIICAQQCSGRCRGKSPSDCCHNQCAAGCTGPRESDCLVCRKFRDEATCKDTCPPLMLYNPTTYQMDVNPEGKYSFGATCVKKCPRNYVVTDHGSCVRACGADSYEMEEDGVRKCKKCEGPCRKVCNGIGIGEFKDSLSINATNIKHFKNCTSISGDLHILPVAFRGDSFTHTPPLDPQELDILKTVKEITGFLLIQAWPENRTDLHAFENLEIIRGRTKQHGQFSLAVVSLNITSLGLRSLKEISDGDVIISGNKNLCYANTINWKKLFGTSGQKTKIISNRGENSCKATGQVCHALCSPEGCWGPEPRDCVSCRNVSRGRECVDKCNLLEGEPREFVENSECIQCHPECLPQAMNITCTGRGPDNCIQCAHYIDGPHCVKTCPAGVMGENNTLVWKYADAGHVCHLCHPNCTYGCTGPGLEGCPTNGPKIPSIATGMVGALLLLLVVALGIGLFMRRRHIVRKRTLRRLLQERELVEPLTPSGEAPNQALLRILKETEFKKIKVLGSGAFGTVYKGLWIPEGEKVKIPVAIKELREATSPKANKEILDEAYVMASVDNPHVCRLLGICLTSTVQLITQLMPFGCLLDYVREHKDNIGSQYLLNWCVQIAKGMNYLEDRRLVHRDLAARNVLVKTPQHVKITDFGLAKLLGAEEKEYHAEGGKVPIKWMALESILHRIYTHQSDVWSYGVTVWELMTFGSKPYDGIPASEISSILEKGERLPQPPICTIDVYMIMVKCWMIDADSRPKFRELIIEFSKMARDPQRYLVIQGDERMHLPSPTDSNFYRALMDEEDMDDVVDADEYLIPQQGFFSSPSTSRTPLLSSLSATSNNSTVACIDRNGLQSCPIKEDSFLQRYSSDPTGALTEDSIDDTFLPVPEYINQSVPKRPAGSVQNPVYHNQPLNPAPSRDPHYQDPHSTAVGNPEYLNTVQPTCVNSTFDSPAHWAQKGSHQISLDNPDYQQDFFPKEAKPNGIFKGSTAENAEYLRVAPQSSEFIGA
Procedure: (§1) The binding mode of gefitinib, typical of an anilinoquinazoline-based kinase inhibitor, is well characterised, with the morpholine side-chain extending into the solvent exposed region where a variety of substituents are tolerated. […] Accordingly, probe compound 6 was prepared, in which the morpholine was replaced by a piperazine and a BODIPY fluorophore was attached via a 4-aminobutanoate spacer (Fig. 3a). A related sapitinib-derived tracer has subsequently been described. Compound 6 was employed in a time-resolved Förster-resonance energy transfer (TR-FRET) assay with EGFR bound to a terbium-containing antibody (Fig. 3b). In line with our previous work exploring the activity of anilinoquinazoline-based acrylamide TCIs[14], the incubation time for the assay was set at 30 mins.
(§2) Compounds (dissolved to 10 mM in DMSO) were dispensed into black low-volume 384 well assay plates (Corning) over a final concentration range of 100000, 30,000, 10,000, 3000, 1000, 300, 100, 30, 10, and 3 nM using an Echo 550 (Labcyte). Positive control compound and DMSO as a negative control were dispensed into the first and last well, respectively. Each well was backfilled with DMSO to a final volume of 200 nl, resulting in final assay DMSO concentrations of 1%. […] Plates were read using a PheraStar FS (BMG Labtech) at Ex337nm […]. The data were analysed using GraphPad Prism/Dotmatics Studies Software. Assays were conducted in technical replicate and repeated as a biological duplicate.

EGFR DM (L858R/T790M) = biological target: T2, EGFR DM (L858R/T790M) (Homo sapiens, UniProt P00533, L858R/T790M); test: TR-FRET probe displacement assay, EGFR DM; assay type: binding; conditions: for DM pIC50 / IC50: 30 min incubation, mean of at least 3 replicates; for IC50: read-out: DM pIC50 (converted)
T2 construct: His tag
T2 sequence (P00533 25-1210 T790M/L858R): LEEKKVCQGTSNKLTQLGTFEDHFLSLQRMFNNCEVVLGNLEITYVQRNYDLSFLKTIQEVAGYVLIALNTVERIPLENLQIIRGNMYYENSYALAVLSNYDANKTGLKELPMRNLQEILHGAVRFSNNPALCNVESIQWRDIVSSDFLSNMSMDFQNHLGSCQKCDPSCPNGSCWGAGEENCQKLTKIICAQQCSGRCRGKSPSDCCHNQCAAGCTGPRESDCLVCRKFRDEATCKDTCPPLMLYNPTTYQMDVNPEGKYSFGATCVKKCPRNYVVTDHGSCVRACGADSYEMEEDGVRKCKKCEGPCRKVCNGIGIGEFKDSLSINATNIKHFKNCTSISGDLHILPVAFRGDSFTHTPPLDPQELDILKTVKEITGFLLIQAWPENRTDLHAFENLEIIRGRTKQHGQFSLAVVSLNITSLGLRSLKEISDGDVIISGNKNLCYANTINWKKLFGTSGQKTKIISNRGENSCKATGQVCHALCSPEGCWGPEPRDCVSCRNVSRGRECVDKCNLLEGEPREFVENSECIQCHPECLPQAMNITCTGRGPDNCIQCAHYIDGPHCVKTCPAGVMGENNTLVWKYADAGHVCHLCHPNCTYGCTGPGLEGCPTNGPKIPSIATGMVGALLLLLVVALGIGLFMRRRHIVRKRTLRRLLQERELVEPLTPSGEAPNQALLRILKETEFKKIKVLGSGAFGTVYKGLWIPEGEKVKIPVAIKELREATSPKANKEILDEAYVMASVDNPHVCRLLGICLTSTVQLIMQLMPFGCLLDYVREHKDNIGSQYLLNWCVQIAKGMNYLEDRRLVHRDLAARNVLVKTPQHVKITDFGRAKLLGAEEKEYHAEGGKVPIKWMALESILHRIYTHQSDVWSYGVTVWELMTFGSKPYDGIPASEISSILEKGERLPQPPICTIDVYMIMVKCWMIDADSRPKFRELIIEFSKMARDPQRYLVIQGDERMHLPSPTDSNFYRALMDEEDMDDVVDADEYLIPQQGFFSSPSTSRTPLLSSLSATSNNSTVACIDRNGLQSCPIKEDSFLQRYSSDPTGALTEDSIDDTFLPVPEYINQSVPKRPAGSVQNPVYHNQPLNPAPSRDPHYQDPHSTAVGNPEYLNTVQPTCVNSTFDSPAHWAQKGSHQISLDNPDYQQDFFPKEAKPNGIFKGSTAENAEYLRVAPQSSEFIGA
Procedure: as §1, §2

[1] = test system: pEGFR in WT EGFR overexpressing A431 cells; test: Cellular pEGFR inhibition by HTRF in A431 cells; assay type: cell-based; conditions: Homo sapiens, A-431, n = 1, read-out: pIC50 (A431) cellular pEGFR inhibition (converted)
Procedure: (§3) Cells were plated at 20,000 cells per well in 96 well plates and placed at 37°C 5% CO2. Once adhered (after 24 h) cells were treated with compounds dissolved in DMSO at a final concentration of 0.1% DMSO in media. Compounds were diluted in media then added to cells for 2.5 hours in duplicate. 100 ng/ml EGF (ThermoFisher, PHG0311) was is added to all compound treated cells as well as a control for 30 mins. Compound and media were removed from the cells, then 50ul of HTRF lysis buffer was added (lysis buffer was diluted from 4X stock to 1X in DI water, with 1% blocking agent also added). Cells were lysed on a plate shaker (2000 rpm) for 30 minutes at room temperature. pEGFR expression was monitored using the Cisbio Phospho-EGFR (Tyr1068) cellular kit (64EG1PEH). Total EGFR expression was monitored using the Cisbio Total EGFR cellular kit (64NG1PEH) as per manufacturer’s instructions. Fluorescence emission was read at two different wavelengths (665 nm and 620 nm) on a PheraStar. Results were calculated as the ratio of pEGFR/ total EGFR and then the percentage of 0 µM control. Data is n = 1 from 2 replicates.

[2] = test system: pEGFR in DM expressing H1975 cells; test: Cellular pEGFR inhibition by HTRF in H1975 cells; assay type: cell-based; conditions: Homo sapiens, NCI-H1975, n = 1, read-out: pIC50 (H1975) cellular pEGFR inhibition (converted)
Procedure: as §3

A431 cells = test: Growth inhibition in A431 cells (SRB, 72 h); assay type: cell-based; conditions: Homo sapiens, A-431, A431 cell viability, n = 1
Procedure: A431 cells purchased from ECACC, Cat. 85090402, were plated on day 0 in a 96-well plate at a density known to allow for exponential growth over 72 h in DMEM (Sigma-Aldrich, Cat No. D5796) supplemented with 10% FBS (Gibco, Cat No. 10270-106). On day 1, the compounds were diluted to the required concentration in DMEM + 10% FBS media, ensuring that the final DMSO concentration was 0.1% once added to cells. The cells were then incubated for 72 h at 37 °C with 5% CO2. Cells were then fixed by adding 50% (wt/vol) TCA to each well of the plate and left at 4 °C for 1 h. The plates were then washed thoroughly with water, 100 μL of 0.4% SRB solution was added to the wells, and left at room temperature for 30 min. The plates were rinsed with 1% AcOH and then left to air-dry in a drying cabinet for 1 h. Once dry, 100 μL of 10 mM tris pH 10.5 was added to each well and the plates were placed on a plate shaker for 10 min. The absorbance was read at 570 nm using a FluoStar Omega plate reader. Data is n = 1 from 3 replicates, […]

WT EGFR = biological target: T3, WT EGFR (Homo sapiens, UniProt P00533); test: Intact protein mass spectrometry; assay type: binding; conditions: 15 µM compound, 4 µM EGFR, 4 hr, ambient temperature
T3 construct: AssayQuant Technologies Inc. (contract measurement)
T3 sequence (P00533 25-1210): as the sequence (P00533 25-1210) above
Procedure: Compounds were suspended to 10 mM in 100% DMSO and were added to 4 µM EGFR to achieve the final compound concentration of 15 µM in 1% DMSO, in 25 mM TRIS pH8, 150 mM NaCL, 5% glycerol before incubating at ambient temperature for the 4 hr time prior to analysis. […] 1 µL of purified protein (~1 mg/mL) was injected onto a MS Pac DS-10 Desalter cartridge ((Thermo Fisher Scientific), PN: 089170, 2.1 × 10 mm) for desalting and reversed phase separation at 70 °C. The mobile phase was 0.1% (v/v) formic acid in LC-MS grade water (A) and LC-MS grade acetonitrile (B) with separation performed over 7.5 min. […] Proteins were detected in positive ion mode using electrospray ionisation with nebuliser pressure of 45 psig, drying gas flow of 5 L/min, and source gas temperature of 325 °C. Sheath gas temperature of 400 °C and gas flow of 11 L/min, capillary voltage of 3500 V and nozzle voltage of 2000V were also used. Mass spectra were acquired using MassHunter Acquisition software (version B.08.00) over a mass range of 100–3000 m/z, at a rate of 1 spectra/s and 1000 ms/spectrum in standard mass range (3200 m/z) at 2 GHz. The instrument had been calibrated over the selected mass range prior to analysis.

`C=CC(=O)Nc1cc(Nc2nccc(-c3cn(C)c4ccccc34)n2)c(OC)cc1N(C)CCN(C)C` [Compound 2, osimertinib, reference compound] showed a half-life at 50 µM (GSH) of 150 min.
Work on `COc1cc2ncnc(Nc3ccc(F)c(Cl)c3)c2cc1OCCCN1CCN(C(=O)CCCNC(=O)CCc2ccc3n2[B-](F)(F)[N+]2=C(C)C=C(C)C2=C3)CC1` [Compound 6, N-(4-(4-(3-((4-((3-chloro-4-fluorophenyl)amino)-7-methoxyquinazolin-6-yl)oxy)propyl)piperazin-1-yl)-4-oxobutyl)-3-(5,5-difluoro-7,9-dimethyl-5H-5l4,6l4-dipyrrolo[1,2-c:2’,1’-f][1,3,2]diazaborinin-3-yl)propenamide, reference compound] yielded a Kd (EGFR WT; fluorescent probe) of 1600 ± 190 nM and a Kd (EGFR DM (L858R/T790M); fluorescent probe) of 3 ± 1.6 µM.
For `C=CC(=O)N1CCC(Oc2cc3c(Nc4cccc(Cl)c4F)ncnc3cc2OC)CC1` [Compound 7], the “WT pIC50” value (EGFR WT) was 8.8 ± 0.1 and the “DM pIC50” value (EGFR DM (L858R/T790M)) was 8.4 ± 0.03.
In the case of `C=CC(=O)N1CCC(Oc2cc3c(Nc4ccc(F)c(Cl)c4)ncnc3cc2OC)CC1` [Compound 8], the “WT pIC50” value (EGFR WT) is reported as 8.3 ± 0.07 and the “DM pIC50” value (EGFR DM (L858R/T790M)) is reported as 8.0 ± 0.6.
Work on `C=CC(=O)N1CC[C@@H](Oc2cc3c(Nc4ccc(F)c(Cl)c4)ncnc3cc2OC)C1` [Compound 16] yielded an IC50 (EGFR WT) of 316 nM, an IC50 (EGFR DM (L858R/T790M)) of 100 nM and a half-life at 50 µM (GSH) of 2160 min. It also gave an IC50 [1] of 79.4 nM, an IC50 [2] of 2510 nM and a GI50 (A431 cells) of 316 nM.
`C=CC(=O)N1CC[C@H](Oc2cc3c(Nc4ccc(F)c(Cl)c4)ncnc3cc2OC)C1` [Compound 17] was tested, and the IC50 (EGFR WT) was 5.01 nM, the IC50 (EGFR DM (L858R/T790M)) was 6.31 nM and the half-life at 50 µM (GSH) was 2460 min. For the same compound, the “level of protein modification compared to 16” value (WT EGFR) was “two-fold increase”, the IC50 [1] was under 10 nM and the IC50 [2] was 25.1 nM. It also gave a GI50 (A431 cells) of 7.94 nM.
For `COc1cc2ncnc(Nc3ccc(F)c(Cl)c3)c2cc1O[C@@H]1CCN(C(C)=O)C1` [Compound 22], the IC50 (EGFR WT) was 39.8 nM and the IC50 (EGFR DM (L858R/T790M)) was 25.1 nM.
Compound `COc1cc2ncnc(Nc3ccc(F)c(Cl)c3)c2cc1O[C@H]1CCN(C(C)=O)C1` [Compound 23] has an IC50 (EGFR WT) of 126 nM and an IC50 (EGFR DM (L858R/T790M)) of 31.6 nM.
